Reference: patent US10766940B2, “Brain penetrant amylin receptor based peptides for Alzheimer's disease” (The Governors of the University of Alberta, priority 2016, dated 2020)
Residues, ends and D or L forms follow the SMILES beside them.

Experiments:
[1] = tested on: TgCRND8 AD mouse model; assay: T-maze alternation, chronic icv infusion of AC253; format: in vivo; conditions: TgCRND8 mice receiving icv AC253 vs other groups
Method: Age-matched, wild-type littermate (C57BL/6 background) male or female mice were used. […] Heterozygous CTR (het CTR) mice (C57BL/6J background) with a 50% deletion of CTR were obtained from Drs. R. A. Davey and J. D. Zajac (Department of Medicine, Austin Health, University of Melbourne, Heidelberg, Victoria, Australia). Mice were housed individually under standard laboratory conditions (12/12-h light/dark cycle, lights on at 0600 h) with a room temperature of 21° C. Water and food were available ad libitum unless otherwise indicated. All tests were performed during the light phase between 0900 and 1600 h in accordance with institutional guidelines. The mice were 3 months old at the onset of testing.
A microcannula was stereotaxically inserted into the right cerebral ventricle (0.12 right lateral and 0.06 posterior to bregma, 3 mm deep) of isofluorane-anesthetized mice, and connected to an osmotic pump (Alzet; model 2004) implanted subcutaneously on the back of the mouse. The pump infused a solution of either aCSF or AC253 in aCSF into the ventricle at a rate of […] to yield an estimated concentration of 1 μM AC253 in the mouse CSF at equilibrium based upon the known CSF dynamics in the mouse brain (Di Pardo et al., 2012). […] Animals were monitored on a daily basis for signs of treatment-related toxicity, such as poor grooming, lethargy, loss of bodyweight, and abnormal behavior. […]

[2] = tested on: APP, CTR, RAMP3, synapsin 1, synaptophysin, Iba1 in TgCRND8 mice brains; assay: Western blot of brain homogenates after 5 months icv AC253; format: in vivo, mouse
Method: A microcannula was stereotaxically inserted into the right cerebral ventricle (0.12 right lateral and 0.06 posterior to bregma, 3 mm deep) of isofluorane-anesthetized mice, and connected to an osmotic pump (Alzet; model 2004) implanted subcutaneously on the back of the mouse. The pump infused a solution of either aCSF or AC253 in aCSF into the ventricle at a rate of […] to yield an estimated concentration of 1 μM AC253 in the mouse CSF at equilibrium based upon the known CSF dynamics in the mouse brain (Di Pardo et al., 2012). The pump reservoir was replaced every 28 days for a total of 5-6 months. Animals were monitored on a daily basis for signs of treatment-related toxicity, such as poor grooming, lethargy, loss of bodyweight, and abnormal behavior. After completion of medication and behavioral tests, all mice were killed with an overdose of isoflourane anesthetic, perfused transcardially with saline, and the brains were harvested. The left hemisphere per animal was frozen for biochemical analysis (Western blot, ELISA), and the right hemisphere retained for histological analysis.
Frozen brain tissues were homogenized in cold RIPA buffer with protease inhibitors and proteins were isolated and measured using BCA assay (BioRad, Mississauga, ON, Canada). Proteins were loaded at 50 μg per lane on a 12% polyacrylamide gel for CTR, RAMP3, NeuN, synapsin1, phospho-synapsin, and Iba1, or 4-20% polyacrylamide gradient gel (BioRad) for APP. Proteins were transferred to nitrocellulose membrane, and blocked with LiCOR blocking buffer. Blots were incubated with primary antibodies overnight at 4° C. on a shaker. Primary antibody used for CTR (1:1000 rabbit; Thermo Scientific), RAMP3 (1:1000 rabbit; Santa Cruz Biotechnology), 6E10 for APP (1:5000 mouse; 6E10; Covance), NeuN (1:1000, rabbit, Abcam), synapsin-1 (1:1000 rabbit, Abcam), synaptophysin (1:1000, rabbit, Abcam), phosphosynapsin (1:1000, rabbit, Abcam), Iba1 (1:1000, rabbit, Wako), β-tubulin (1:1000, rabbit, Cell Signaling Technology, Inc.) and β-actin (1:10000 mouse, Sigma-Aldrich). IRDye 800CW goat anti-rabbit and IRDye 680CW goat anti-mouse were used as secondary antibodies. Blots were imaged using LiCor Odyssey image system.

[3] = tested on: Aβ plaques in TgCRND8 mice brains; assay: Immunofluorescent-histological staining of Aβ plaques (6E10); format: in vivo, mouse; conditions: Tg AC253 vs Tg CSF
Method: A microcannula was stereotaxically inserted into the right cerebral ventricle (0.12 right lateral and 0.06 posterior to bregma, 3 mm deep) of isofluorane-anesthetized mice, and connected to an osmotic pump (Alzet; model 2004) implanted subcutaneously on the back of the mouse. The pump infused a solution of either aCSF or AC253 in aCSF into the ventricle at a rate of […] to yield an estimated concentration of 1 μM AC253 in the mouse CSF at equilibrium based upon the known CSF dynamics in the mouse brain (Di Pardo et al., 2012). The pump reservoir was replaced every 28 days for a total of 5-6 months. Animals were monitored on a daily basis for signs of treatment-related toxicity, such as poor grooming, lethargy, loss of bodyweight, and abnormal behavior. […]
For immunostaining, […] thick brain sections were cut using a Cryostat (Leica CM1850), fixed with 4% paraformaldehyde in PBS, permeabilized using 0.3% Triton X-100 and stained with Aβ (6E10), Iba1, and CTR antibody, followed by fluorescent secondary antibody (goat anti mouse Alexa Fluor-546 and donkey anti rabbit Alexa Fluor-488) and mounted in DAPI mounting media. Fluorescent microscopy images were acquired with an Axioplan-2 fluorescence microscope with AxioVision software (Carl Zeiss Ltd., Toronto, ON, Canada). Amyloid plaque size and area were analyzed with Image J.

[4] = Ex vivo brain imaging of peptide fragments after ip injection, wild-type mice; format: in vivo, mouse
Method: For ex vivo imaging experiments and peptide brain uptake, age matched 6-month-old wild-type littermate (C57BL/6 background) mice were used. […] After 2 hours the mice were then sacrificed to collect their brains, and imaged using the Kodak imager as described above, but with an exposure time of 3 min per image for NIRF image.
For ex vivo histological studies, brains were excised, embedded in OCT, then sliced into 20-μm slices, co-stained with DAPI in mounting medium.
(§1) Mice were injected with a single dose and then sacrificed, and the brains were extracted after 2 hours from injection. Fluorescence in brains was quantified as previously described.

[5] = tested on: heterozygous CTR knockdown mice (50% depletion of amylin receptors); assay: R5 brain uptake in heterozygous CTR knockdown mice; format: in vivo, mouse; conditions: Wt vs CTR knockdown mice, ip, 2 hr
Method: as §1

Row | Structure (SMILES) | T-maze, identification of the food arm [1] | amylin receptor (CTR, RAMP3 proteins) expression levels in the brain ([2]; Tg AC253 vs Tg CSF) | increase in expression level of synapsin 1 ([2]; Tg AC253 vs Tg CSF controls) [%] | increase in expression level of synaptophysin ([2]; Tg AC253 vs Tg CSF controls) [%] | APP expression (Western blot) ([2]; Tg AC253 vs Tg CSF, 5 months icv) | reduction of expression levels of Iba-1 (microglial marker) ([2]; Tg-AC253 vs Tg-CSF) [%] | number of Aβ plaques, total area of Aβ-positive profiles [3] | brain permeability, imaging of the intact brain ([4]; 0.1 mmol ip, 2 hr post-injection, tested alongside Davlintide) | brain permeability compared to AC253 ([4]; 2 hr post-ip injection, wild-type mice) | brain uptake in relation to amylin receptor expression [5]
1 | CC(C)C[C@H](NC(=O)[C@H](CCCNC(=N)N)NC(=O)CNC(=O)[C@@H](N)CC(C)C)C(=O)N[C@@H](CO)C(=O)N[C@@H](CCC(N)=O)C(=O)N[C@@H](CCC(=O)O)C(=O)N[C@@H](CC(C)C)C(=O)N[C@@H](Cc1c[nH]cn1)C(=O)N[C@@H](CCCNC(=N)N)C(=O)N[C@@H](CC(C)C)C(=O)N[C@@H](CCC(N)=O)C(=O)N[C@H](C(=O)N[C@@H](Cc1ccc(O)cc1)C(=O)N1CCC[C@H]1C(=O)N[C@@H](CCCNC(=N)N)C(=O)N[C@H](C(=O)N[C@@H](CC(N)=O)C(=O)N[C@H](C(=O)NCC(=O)N[C@@H](CO)C(=O)N[C@@H](CC(N)=O)C(=O)N[C@H](C(=O)N[C@@H](Cc1ccc(O)cc1)C(N)=O)[C@@H](C)O)[C@@H](C)O)[C@@H](C)O)[C@@H](C)O [AC253] | correctly identified the food arm of the maze | no noticeable difference | 40 | 30 | no significant difference | 50 | did not reveal significant difference | – | – | –
2 | CC(C)C[C@H](NC(=O)[C@H](CCC(=O)O)NC(=O)[C@H](CCC(N)=O)NC(=O)[C@@H](N)CO)C(=O)N[C@@H](Cc1c[nH]cn1)C(=O)N[C@@H](CCCNC(=N)N)C(=O)N[C@@H](CC(C)C)C(=O)N[C@@H](CCC(N)=O)C(=O)N[C@H](C(=O)N[C@@H](Cc1ccc(O)cc1)C(=O)N1CCC[C@H]1C(=O)N[C@@H](CCCNC(=N)N)C(N)=O)[C@@H](C)O [R5] (H-SQELHRLQTYPR-NH2; N-terminus assumed) | – | – | – | – | – | – | – | marked brain permeability | marked increase in brain permeability | proportional to the degree of amylin receptor expression
